Measurements published in PMC9699089 (Pathogens, 2022).

How the values were obtained:
[1] = test system: Plasmodium falciparum CQ-sensitive strain 3D7; experiment: In vitro antiplasmodial activity, SYBR Green I fluorescence-based method, strain 3D7; assay type: cell-based; conditions: CQ-sensitive strain 3D7, 48 h incubation, mean of three independent experiments, read-out: P. falciparum Strains IC50 Values 3D7
Outline: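 P. falciparum cultured in human erythrocytes in RPMI with 0.5% Albumax I, hypoxanthine and gentamicin at 37 °C in a candle jar. Compounds tested from 39 nM to 40 µM for 48 h. Parasite DNA quantified by SYBR Green I fluorescence in saponin/Triton lysis buffer (ex 485/em 535 nm).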

[2] = test system: Trypanosoma 9 and 11 chromosomic sequence FTrypBT (FEBR1T) G-quadruplex; experiment: FRET melting assay, FtrypBT; assay type: binding, Trypanosoma brucei brucei; conditions: compound 2 μM, oligonucleotide 0.2 μM, K+ conditions
Outline: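 Dual-labelled FAM/TAMRA oligonucleotides (0.2 µM) pre-folded in 10 mM lithium cacodylate pH 7.2, 10 mM KCl, 90 mM LiCl, with 2 µM compound. FAM emission (ex 492/em 516 nm) followed from 25 to 95 °C at 1 °C/min; Tm is the temperature at normalized emission 0.5, compared with and without compound.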

[3] = target: duplex-forming sequence DK66; experiment: Native electrospray mass spectrometry, DK66; assay type: binding; parameters: key to Kd DK66, stoichiometry 2 (Kd2) / Kd DK66, stoichiometry 1 (Kd1): n.b.: no binding detected; <LOQ: binding detected but below limit of quantitation; conditions: 100 mM TMAA, 1 mM KCl; for Kd: read-out: Kd DK66, stoichiometry 1 (Kd1); for Kd DK66, stoichiometry 2 (Kd2): 2:1 ligand:DNA complex
Experimental: Oligonucleotides were purchased in the lyophilized form from Eurogentec (RP-cartridge purification), and dissolved at 1 mM in pure water. TMAA (1 M) was purchased from Santa Cruz Biotechnology and potassium chloride (purity > 99.99%) from Sigma Aldrich (Sigma Aldrich, Saint-Quentin-Fallavier, France). The sample solutions contained 10 µM oligonucleotide and 10 (for CD only) or 20 µM ligand, in a 100 mM TMAA, 1mM KCl buffer. The solutions were incubated overnight at 4 °C before analysis.
The sample solutions were injected at a 10 µM strand concentration on an Agilent 6560 DTIMS-Q-TOF instrument (Agilent Technologies, Santa Clara, CA, USA), equipped with a dual-ESI source operated in the negative ion mode in soft conditions. The following parameters were used: fragmentor 320 V, trap fill time 1000 µs, trap release time 200 µs, trap entrance grid delta 2 V. The drift tube was filled with helium and the pressure was fixed at 3.89 ± 0.01 Torr (measured by a capacitance diaphragm gauge CDG-500, Agilent Technologies).
The MS data were extracted using the IM-MS Browser (v. B.08.00; Agilent Technologies). The peak area intensity of each species at the 5- charge state was extracted from their corresponding m/z range (encompassing potassium adducts), and baseline subtracted. The concentrations of all species (free DNA, free ligands, and complexes) and corresponding dissociation constants were determined as previously described.

[4] = test system: Plasmodium telomeric sequence FPf8T G-quadruplex; experiment: FRET melting assay, FPf8T; assay type: binding, Plasmodium falciparum; conditions: compound 2 μM, oligonucleotide 0.2 μM, K+ conditions

Row | SMILES | IC50 [1] | ΔTm FtrypBT [2] | Kd DK66, stoichiometry 1 (Kd1) ([3]; 1:1 ligand:DNA complex) | ΔTm FPf8T [4] | Kd ([3]; 1:1 ligand:DNA complex) | Kd DK66, stoichiometry 2 (Kd2) [3]
1 | c1ccc(-c2cc(CNCCc3ccccn3)nc3c2ccc2c(-c4ccccc4)cc(CNCCc4ccccn4)nc23)cc1 [Compound 1m] | 0.47 ± 0.12 µM | 1.8 °C | n.b. | 1.0 °C | – | –
2 | CN(C)CCCCCNCc1cc(-c2ccccc2)c2ccc3c(-c4ccccc4)cc(CNCCCCCN(C)C)nc3c2n1 [Compound 1d, 2,9-Bis[(5-dimethylaminopentyl)aminomethyl]-4,7-diphenyl-1,10-phenanthroline] | 4.79 ± 0.5 µM | 14.7 °C | – | 20.5 °C | 53 µM | n.b.
3 | c1ccc(-c2cc(CNCCCN3CCCC3)nc3c2ccc2c(-c4ccccc4)cc(CNCCCN4CCCC4)nc23)cc1 [Compound 1l] | 9.91 ± 1.73 µM | 11.6 °C | – | 14.2 °C | 55 µM | n.b.
4 | CN(C)CCCCNCc1cc(-c2ccccc2)c2ccc3c(-c4ccccc4)cc(CNCCCCN(C)C)nc3c2n1 [Compound 1c, 2,9-Bis[(4-dimethylaminobutyl)aminomethyl]-4,7-diphenyl-1,10-phenanthroline] | 10.3 ± 2.13 µM | 10.6 °C | – | 10.2 °C | 110 µM | n.b.
